From patent US10913727B2, “Modulators of the integrated stress pathway” (Calico Life Sciences LLC, priority 2016, dated 2021)

Test system: HEK293T cells carrying the ATF4 luciferase reporter
Assay: ATF4-Luc assay, in vitro model of Vanishing Cell White Matter Disease (VWMD)
Assay type: cell-based
Details: Homo sapiens, HEK-293T, 1 μg/mL tunicamycin, 7 hours, One Glo luminescence
How it was run: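 Compound at 200 nM and tunicamycin at 1 μg/mL were given together for 7 h to HEK293T cells stably transduced with an ATF4 5′-UTR-driven firefly luciferase reporter. Read-out by luminescence, reported as EC50.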

## O=C(COc1ccc(Cl)c(F)c1)NC12CC(NC(=O)c3cc(O)ccn3)(C1)C2 [Compound 183, N-{3-[2-(4-chloro-3-fluorophenoxy)acetamido]bicyclo[1.1.1]pentan-1-yl}-4-hydroxypyridine-2-carboxamide]
  EC50: 1 to 2 µM

## Cn1ncc(C(=O)NC23CC(NC(=O)COc4ccc(Cl)c(F)c4)(C2)C3)c1C(F)(F)F [Compound 874, N-{3-[2-(4-chloro-3-fluorophenoxy)acetamido]bicyclo[1.1.1]pentan-1-yl}-1-methyl-5-(trifluoromethyl)-1H-pyrazole-4-carboxamide]
  EC50: > 2 µM

## Cc1cc(C(=O)NC23CC(NC(=O)COc4ccc(Cl)c(F)c4)(C2)C3)oc1C [Compound 612, N-{3-[2-(4-chloro-3-fluorophenoxy)acetamido]bicyclo[1.1.1]pentan-1-yl}-4,5-dimethylfuran-2-carboxamide]
  EC50: 0.05 to 0.25 µM

## O=C(COc1ccc(Cl)c(F)c1)NC12CC(Nc3cnc(C(F)(F)F)nc3)(C1)C2 [Compound 755, 2-(4-chloro-3-fluorophenoxy)-N-(3-{[2-(trifluoromethyl)pyrimidin-5-yl]amino}bicyclo[1.1.1]pentan-1-yl)acetamide]
  EC50: 0.25 to 1 µM

## O=C(COc1ccc(Cl)c(F)c1)NC12CC(NC(=O)c3ccc(OC(F)(F)F)cn3)(C1)C2 [Compound 117, N-{3-[2-(4-chloro-3-fluorophenoxy)acetamido]bicyclo[1.1.1]pentan-1-yl}-5-(trifluoromethoxy)pyridine-2-carboxamide]
  EC50: < 0.05 µM

## O=C(COc1ccc(Cl)c(F)c1)NC12CC(NC(=O)c3cccc4c3OCO4)(C1)C2 [Compound 240, N-{3-[2-(4-chloro-3-fluorophenoxy)acetamido]bicyclo[1.1.1]pentan-1-yl}-2H-1,3-benzodioxole-4-carboxamide]
  EC50: 1 to 2 µM

## Cc1cc(C(=O)NC23CCC(NC(=O)COc4ccc5c(c4)OC(F)(F)O5)(CC2)[C@@H](O)C3)on1 [Compound 636, N-[(3S)-4-{2-[(2,2-difluoro-2H-1,3-benzodioxol-5-yl)oxy]acetamido}-3-hydroxybicyclo[2.2.2]octan-1-yl]-3-methyl-1,2-oxazole-5-carboxamide]
  EC50: 0.25 to 1 µM

## Cc1nc(C(=O)NC23CCC(NC(=O)COc4ccc(Cl)c(F)c4)(CC2)[C@H](O)C3)c(C)s1 [Compound 497, N-{(3R)-4-[2-(4-chloro-3-fluorophenoxy)acetamido]-3-hydroxybicyclo[2.2.2]octan-1-yl}-2,5-dimethyl-1,3-thiazole-4-carboxamide]
  EC50: 0.25 to 1 µM

## Cc1cc(C(=O)NC23CC(NC(=O)COc4ccc(Cl)c(Cl)c4)(C2)C3)cnc1C [Compound 693, N-{3-[2-(3,4-dichlorophenoxy)acetamido]bicyclo[1.1.1]pentan-1-yl}-5,6-dimethylpyridine-3-carboxamide]
  EC50: 0.25 to 1 µM

## Cc1nn(C)c2ncnc(NC34CC(NC(=O)COc5ccc(Cl)c(F)c5)(C3)C4)c12 [Compound 435, 2-(4-chloro-3-fluorophenoxy)-N-{3-[(1,3-dimethyl-1H-pyrazolo[3,4-d]pyrimidin-4-yl)amino]bicyclo[1.1.1]pentan-1-yl}acetamide]
  EC50: > 2 µM

## Cc1ncc(C(=O)NC23CC(NC(=O)COc4ccc(Cl)c(Cl)c4)(C2)C3)o1 [Compound 675, N-{3-[2-(3,4-dichlorophenoxy)acetamido]bicyclo[1.1.1]pentan-1-yl}-2-methyl-1,3-oxazole-5-carboxamide]
  EC50: 0.05 to 0.25 µM

## Cc1cc(C(=O)NC23CCC(NC(=O)COc4ccc(Cl)c(F)c4)(CC2)C[C@@H]3O)n(C)n1 [Compound 506, N-{(2S)-4-[2-(4-chloro-3-fluorophenoxy)acetamido]-2-hydroxybicyclo[2.2.2]octan-1-yl}-1,3-dimethyl-1H-pyrazole-5-carboxamide]
  EC50: 0.05 to 0.25 µM

## O=C(COc1ccc(Cl)c(F)c1)NC12CC(NC(=O)c3ccc(Cl)cc3)(C1)C2 [Compound 199, 4-chloro-N-{3-[2-(4-chloro-3-fluorophenoxy)acetamido]bicyclo[1.1.1]pentan-1-yl}benzamide]
  EC50: 0.05 to 0.25 µM

## O=C(COc1ccc(Cl)c(F)c1)NC12CCC(NC(=O)c3ccc(F)cc3)(CC1)CC2O (stereo not drawn) [Compound 231, N-{4-[2-(4-chloro-3-fluorophenoxy)acetamido]-3-hydroxybicyclo[2.2.2]octan-1-yl}-4-fluorobenzamide]
  EC50: 0.05 to 0.25 µM

## O=C(COc1ccc(Cl)c(F)c1)NC12CC(NC(=O)c3ccc(Cl)c(F)c3)(C1)C2 [Compound 692, 4-chloro-N-{3-[2-(4-chloro-3-fluorophenoxy)acetamido]bicyclo[1.1.1]pentan-1-yl}-3-fluorobenzamide]
  EC50: 0.05 to 0.25 µM

## O=C(COc1ccc2c(c1)OC(F)(F)O2)NC12CC(NC(=O)c3ccccn3)(C1)C2 [Compound 400, N-(3-{2-[(2,2-difluoro-2H-1,3-benzodioxol-5-yl)oxy]acetamido}bicyclo[1.1.1]pentan-1-yl)pyridine-2-carboxamide]
  EC50: 0.25 to 1 µM

## O=C(COc1ccc(Cl)c(F)c1)NC12CC(NC(=O)c3nc4ccccc4s3)(C1)C2 [Compound 907, N-{3-[2-(4-chloro-3-fluorophenoxy)acetamido]bicyclo[1.1.1]pentan-1-yl}-1,3-benzothiazole-2-carboxamide]
  EC50: 0.05 to 0.25 µM

## CCc1ccc(C(=O)NC23CCC(NC(=O)COc4ccc(Cl)c(F)c4)(CC2)[C@@H](O)C3)nc1 [Compound 754, N-{(3S)-4-[2-(4-chloro-3-fluorophenoxy)acetamido]-3-hydroxybicyclo[2.2.2]octan-1-yl}-5-ethylpyridine-2-carboxamide]
  EC50: < 0.05 µM

## Cc1cnc(C(=O)NC23CC(NC(=O)COc4ccc(Cl)c(F)c4)(C2)C3)o1 [Compound 478, N-{3-[2-(4-chloro-3-fluorophenoxy)acetamido]bicyclo[1.1.1]pentan-1-yl}-5-methyl-1,3-oxazole-2-carboxamide]
  EC50: 0.05 to 0.25 µM

## O=C(COc1ccc(Cl)c(F)c1)NC12CC(NC(=O)c3csc(N4CCOCC4)n3)(C1)C2 [Compound 771, N-{3-[2-(4-chloro-3-fluorophenoxy)acetamido]bicyclo[1.1.1]pentan-1-yl}-2-(morpholin-4-yl)-1,3-thiazole-4-carboxamide]
  EC50: > 2 µM

## O=C(COc1ccc(Cl)c(F)c1)NC12CC(NC(=O)c3ccncn3)(C1)C2 [Compound 187, N-{3-[2-(4-chloro-3-fluorophenoxy)acetamido]bicyclo[1.1.1]pentan-1-yl}pyrimidine-4-carboxamide]
  EC50: 1 to 2 µM

## Cc1noc2ncc(C(=O)NC34CC(NC(=O)COc5ccc(Cl)c(F)c5)(C3)C4)cc12 [Compound 791, N-{3-[2-(4-chloro-3-fluorophenoxy)acetamido]bicyclo[1.1.1]pentan-1-yl}-3-methyl[1,2]oxazolo[5,4-b]pyridine-5-carboxamide]
  EC50: > 2 µM

## Cc1cncc(C(=O)NC23CCC(NC(=O)COc4ccc(Cl)c(F)c4)(CC2)C[C@@H]3O)n1 [Compound 734, N-{(2S)-4-[2-(4-chloro-3-fluorophenoxy)acetamido]-2-hydroxybicyclo[2.2.2]octan-1-yl}-6-methylpyrazine-2-carboxamide]
  EC50: < 0.05 µM

## O=C(COc1ccc(Cl)c(F)c1)NC12CCC(NC(=O)c3ccccc3C(=O)O)(CC1)CC2O (stereo not drawn) [Compound 656, 2-({4-[2-(4-chloro-3-fluorophenoxy)acetamido]-3-hydroxybicyclo[2.2.2]octan-1-yl}carbamoyl)benzoic acid]
  EC50: > 2 µM

## CCOC(=O)c1ccnc(C(=O)NC23CC(NC(=O)COc4ccc(Cl)c(F)c4)(C2)C3)c1 [Compound 204, ethyl 2-({3-[2-(4-chloro-3-fluorophenoxy)acetamido]bicyclo[1.1.1]pentan-1-yl}carbamoyl)pyridine-4-carboxylate]
  EC50: 0.05 to 0.25 µM

## O=C(COc1ccc(Cl)c(F)c1)NC12CCC(NC(=O)c3cc(C(F)F)cs3)(CC1)C[C@@H]2O [Compound 665, N-{(3S)-4-[2-(4-chloro-3-fluorophenoxy)acetamido]-3-hydroxybicyclo[2.2.2]octan-1-yl}-4-(difluoromethyl)thiophene-2-carboxamide]
  EC50: < 0.05 µM

## O=C(COc1ccc(Cl)c(F)c1)NC12CCC(NC(=O)c3cc4nccnc4s3)(CC1)CC2O (stereo not drawn) [Compound 627, N-{4-[2-(4-chloro-3-fluorophenoxy)acetamido]-3-hydroxybicyclo[2.2.2]octan-1-yl}thieno[2,3-b]pyrazine-6-carboxamide]
  EC50: > 2 µM

## O=C(COc1ccc(Cl)c(F)c1)NC12CC(Nc3nc4cc(Cl)ccc4o3)(C1)C2 [Compound 369, N-{3-[(5-chloro-1,3-benzoxazol-2-yl)amino]bicyclo[1.1.1]pentan-1-yl}-2-(4-chloro-3-fluorophenoxy)acetamide]
  EC50: 1 to 2 µM

## O=C(COc1ccc(Cl)c(F)c1)NC12CC(NC(=O)c3ccccc3F)(C1)C2 [Compound 507, N-{3-[2-(4-chloro-3-fluorophenoxy)acetamido]bicyclo[1.1.1]pentan-1-yl}-2-fluorobenzamide]
  EC50: 0.25 to 1 µM

## O=C(COc1ccc(Cl)c(F)c1)NC12CC(NC(=O)c3ccc(-c4ccco4)cn3)(C1)C2 [Compound 267, N-{3-[2-(4-chloro-3-fluorophenoxy)acetamido]bicyclo[1.1.1]pentan-1-yl}-5-(furan-2-yl)pyridine-2-carboxamide]
  EC50: < 0.05 µM

## CC(C)c1oncc1C(=O)NC12CC(NC(=O)COc3ccc(Cl)c(F)c3)(C1)C2 [Compound 855, N-{3-[2-(4-chloro-3-fluorophenoxy)acetamido]bicyclo[1.1.1]pentan-1-yl}-5-(propan-2-yl)-1,2-oxazole-4-carboxamide]
  EC50: > 2 µM

## O=C(COc1ccc(Cl)c(F)c1)NC12CC(NC(=O)c3cnc(C4CCC(F)(F)CC4)o3)(C1)C2 [Compound 126, N-{3-[2-(4-chloro-3-fluorophenoxy)acetamido]bicyclo[1.1.1]pentan-1-yl}-2-(4,4-difluorocyclohexyl)-1,3-oxazole-5-carboxamide]
  EC50: 0.05 to 0.25 µM

## CS(=O)(=O)Nc1cccc(C(=O)NC23CC(NC(=O)COc4ccc(Cl)c(F)c4)(C2)C3)c1 [Compound 851, N-{3-[2-(4-chloro-3-fluorophenoxy)acetamido]bicyclo[1.1.1]pentan-1-yl}-3-[(methanesulfonyl)amino]benzamide]
  EC50: 0.25 to 1 µM
